The values that follow come from patent US7267983B2 (priority 2000, dated 2007).

Several values for one entry are separate records, joined by “and”; a condition that tells them apart may be missing. Equal entries are not always repeated.

For this experiment, the system named is β-toxin production by Clostridium perfringens. It counts as cell-based. Details: mean total toxin production: unit not given here.

Turning to QNDVY: pentapeptide, the “beta toxin accumulation in the culture supernatant” value is given as “enhance beta toxin accumulation” and the toxin per cell entry is reported as “increased toxin per cell above the mean”. Take NEYLY: pentapeptide: the “mean total toxin production” value is 8.665.

For the substance ESLQM: pentapeptide, the toxin per cell entry is recorded as “increased toxin per cell above the mean”. With FEFVG: pentapeptide, the “amount of toxin produced per cell” value is reported as “doubled”; the “mean total toxin production” value was 8.79 and 8.787; the “total toxin in the two-point ELISA over optimized base medium alone” value was “about 2.2 ×”; the “total toxin produced by the culture” value is given as “near doubling”.

Turning to DTHHI: pentapeptide, the toxin per cell result is listed as “increased toxin per cell above the mean”. As to HTVEL: pentapeptide, the “beta toxin accumulation in the culture supernatant” value is reported as “enhance beta toxin accumulation” and the toxin per cell result is on record as “increased toxin per cell above the mean”. On to NQLEV: pentapeptide, for which the “mean total toxin production” value is recorded as 7.81. For the substance NLTEL: pentapeptide, the “mean total toxin production” value is given as 8.321. On to VHVYQ: pentapeptide, for which the toxin production entry is “toxin production above the mean obtained in 0.5% hydrolysate media”.

With HAPAY: pentapeptide, the toxin per cell entry was “increased toxin per cell above the mean”. Regarding ETLNL: pentapeptide, the “mean total toxin production” value turned out to be 8.28.

FEFGV: pentapeptide: the toxin per cell result is “increased toxin per cell above the mean”. The same measure, in the same setting: with KPLDV: pentapeptide the entry was “increased toxin per cell above the mean”; with YEYIY: pentapeptide, “increased toxin per cell above the mean”. The same measure, in the same setting: the value for SNGIY: pentapeptide was “increased toxin per cell above the mean”; that for TKPFF: pentapeptide was “increased toxin per cell above the mean”; that for SYIME: pentapeptide was “increased toxin per cell above the mean”. NEGLG: pentapeptide: the toxin per cell result is on record as “increased toxin per cell above the mean”.

On to FSLLE: pentapeptide, for which the “mean total toxin production” value was found to be 8.855. Consider VNVQA: pentapeptide, for which the toxin per cell result is given as “increased toxin per cell above the mean”. For the substance EKALE: pentapeptide, the toxin per cell result is “increased toxin per cell above the mean”. In the case of MMELE: pentapeptide, the toxin per cell result is given as “increased toxin per cell above the mean”.

Consider PELME: pentapeptide, for which the toxin per cell entry was “increased toxin per cell above the mean”. For the substance KFIFE: pentapeptide, the toxin per cell result is “increased toxin per cell above the mean”. The same measure, in the same setting: the value for FMSTA: pentapeptide was “increased toxin per cell above the mean”. With SQLEL: pentapeptide, the “mean total toxin production” value is 8.284. Regarding DMLQT: pentapeptide, the toxin per cell entry is listed as “increased toxin per cell above the mean”. On the same count and under the same terms, the value for MHAPP: pentapeptide was “increased toxin per cell above the mean”.

With MPNNF: pentapeptide, the toxin per cell result was “increased toxin per cell above the mean”.

In the case of VDLLG: pentapeptide, the toxin per cell entry is “increased toxin per cell above the mean”. IKLAS: pentapeptide: the “mean total toxin production” value worked out at 7.7475. GGMPG: pentapeptide: the toxin per cell result was “increased toxin per cell above the mean”. Take GYPEV: pentapeptide: the toxin per cell entry is “increased toxin per cell above the mean”.

Regarding YENLY: pentapeptide, the toxin per cell entry was “increased toxin per cell above the mean”. In the case of GDYVS: pentapeptide, the toxin per cell result was “increased toxin per cell above the mean”.

Consider LADTF: pentapeptide, for which the toxin per cell entry is “increased toxin per cell above the mean”.

Take NNNNN: pentapeptide: the toxin production entry was “toxin production above the mean obtained in 0.5% hydrolysate media”. Take LPDLF: pentapeptide: the toxin per cell result is on record as “increased toxin per cell above the mean”. With FSFVE: pentapeptide, the “mean total toxin production” value worked out at 8.727. Consider ELSPH: pentapeptide, for which the toxin per cell entry is “increased toxin per cell above the mean”. On to VEFTN: pentapeptide, for which the toxin per cell entry is reported as “increased toxin per cell above the mean”.

Consider LSFIE: pentapeptide, for which the toxin per cell result was “increased toxin per cell above the mean”. Take LSAL: tetrapeptide: the toxin production entry is given as “significantly inhibited toxin production”. As for ALFHE: pentapeptide, the toxin per cell result is “increased toxin per cell above the mean”. Regarding FVPEK: pentapeptide, the toxin per cell result is reported as “increased toxin per cell above the mean”. Take DKAL: tetrapeptide: the “total toxin ratio (total toxin with test peptide divided by base media total toxin)” value is reported as “increased the total toxin ratio”.

On to YEYIG: pentapeptide, for which the “total toxin mean value” is “greater than twice that obtained using 3.5% hydrolysate alone”. For PLFEQ: pentapeptide, the toxin per cell entry is “increased toxin per cell above the mean”. For KTVGI: pentapeptide, the toxin per cell result is recorded as “increased toxin per cell above the mean”. Take YEQQN: pentapeptide: the toxin per cell result is “increased toxin per cell above the mean”. With ETVNF: pentapeptide, the toxin per cell result is “increased toxin per cell above the mean”.

With DKTNG: pentapeptide, the toxin per cell result is listed as “increased toxin per cell above the mean”. Consider FDIST: pentapeptide, for which the “mean total toxin production” value came to 8.395. Turning to SVMEM: pentapeptide, the toxin per cell entry was “increased toxin per cell above the mean”.

On to KFIEK: pentapeptide, for which the toxin per cell entry is “increased toxin per cell above the mean”.
